According to publication PMC7226839, “Modulation of STAT3 Signaling, Cell Redox Defenses and Cell Cycle Checkpoints by β-Caryophyllene in Cholangiocarcinoma Cells: Possible Mechanisms Accounting for Doxorubicin Chemosensitization and Chemoprevention” (Cells, 2020):
Structures can show the parent of a compound that is named as a salt. Where two headings read alike, the source gives them in different places.

Assays:
[1] = test system: Mz-ChA-1 cholangiocarcinoma cells; experiment: Annexin-V-FITC fluorescence microscopy, semiquantitative; format: cell-based, human; details: Mz-ChA-1, 24 h, β-caryophyllene 50 µM, doxorubicin 20 µM
Procedure: (§1) Apoptosis extent was evaluated by Annexin-V staining (Annexin V Apoptosis detection kit, Santa Cruz Biotechnology, DBA, Milan, Italy), which is known to specifically binds phosphatidylserine, a […] which is normally embedded in the inner leaflet of plasma membrane and externalized during apoptosis, as a result of the membrane changes. Therefore, apoptotic cells can be directly detected through their staining with the fluorochrome-conjugated Annexin V. The analysis was performed by both fluorescence microscopy and flow cytometry in order to both visualize the event and to achieve a quick and accurate quantification of apoptotic cells.

[2] = test system: glutathione in Mz-ChA-1 cholangiocarcinoma cells; experiment: HPLC determination of intracellular GSH and GSSG; format: cell-based, human
Procedure: (§2) Intracellular levels of reduced (GSH) and oxidized (GSSG) glutathione were measured by HPLC-UV, as previously described. Briefly, after treatments with β-caryophyllene (50 µM) and doxorubicin (20 µM), the harvested cells (1 × 10^6 cells) were suspended in 10% ice-cold TCA and centrifuged for 15 min at 9000× g, then supernatant was collected and GSH and GSSG measured by HPLC with UV detection at 215 nm. The separation was achieved using a InfinityLab poroshell 120 EC-C18 column (3 × 150 mm, 2.7 μm) at a flow rate of 0.8 mL/min, using the following elution gradient: 0–3 min 100% A + 0% B, 3–10 min from 100% A to 100% B. The mobile phase A contained 0.1% trifluoroacetic acid in water, whereas mobile phase B was 0.1% trifluoroacetic acid in water/acetonitrile (93:7). Under our chromatographic conditions, retention times of GSH and GSSG were 2.58 min and 7.01 min, respectively.

[3] = test system: Mz-ChA-1 cholangiocarcinoma cells; experiment: cells; details: Homo sapiens, combination with 50 µM β-caryophyllene
Procedure: (§3) To perform the assay, the cells were grown for 24 h into 96-well microplates (2 × 10^4 cells/well), then treated with the test substances and incubated according to the applied protocol schedule [26]. At the end of incubation, the cytotoxicity was measured by the 3-[4,5-dimethylthiazol-2-yl] -2,5-diphenyl tetrazolium bromide (MTT) assay, using an Epoch Microplate Spectrophotometer (BioTek, AHSI, Milan Italy). At least three biologic replicates, in which each concentration was tested in triplicate, were made. Comparing the number of viable cells in each treatment respect to the vehicle control allows to measure a cell viability reduction. The effect of the treatment was considered as cytotoxic when at least a 30% lowering of cell viability occurred [59].
(§4) In the single long-term schedule, confluence cells were exposed to the test substances for 24 h and 72 h (Figure S1), then the cytotoxicity was measured by the MTT assay. Under the metronomic treatment, the cells were subjected to a short and/or repeated exposure of 2 h to the test substances (Figure S2), as follow: 1) single treatment, the cells were treated for 2 h, then washed and incubated for 72 h; 2) two-repeated treatments, the cells were exposed to the test substances for 2 h, then washed and incubated for functional recovery for further 2 h. After recovering, the cells were further treated with the test substances for 2 h, washed and incubated for 72 h. Finally, the cytotoxicity was measured by the MTT assay as described above.
(§5) The type of interaction between β-caryophyllene and doxorubicin, i.e., synergy, additivity or antagonism, was evaluated by measuring three parameters: reversal ratio value (RR), combination index (CI) and isobolographic analysis (IB) [24].
(§6) RR represents the cytotoxicity enhancement ratio and allows to quantify the efficacy increase of a drug (A) in the presence of a chemosensitizing agent (B), by relating the IC50 of A alone (CA) and that of IC50 of its combination with B (CA+B).
(§7) CI gives a quantitative measure of the interaction and is calculated as follow: (CA,X/ICX,A) + (CB, X/ICX,B), in which CA,X and CB,X are the concentrations of A and B at the IC50 value of their combination, whereas ICX,A and ICX,B are the IC50 values of the substances alone. When the CI value was equal to, less or higher than 1, the interaction between test substances was evaluated as additivity, synergism and antagonism, respectively.
(§8) The isobolographic analysis, displaying the extent of the interaction between drug A and the potential chemosensitizer B, was obtained by a two-coordinate plot, wherein the IC50 concentrations of A and B were plotted on the x and y axes, corresponding to (CA, 0) and (C0, B), respectively. The substance concentrations used in the combination (CA+B) were placed in the same plot. A nonlinear regression analysis was carried out by GraphPad Prism™ 6.00 software, in order to connect the IC50 value of each drug alone and that of the combination, whereas the line connecting CA and CB represented an additive interaction. A synergism between A and B occurred when CA+B were located below the line, while the interaction was antagonistic when the values were above the line [60].

[4] = test system: phospho(Tyr705)-STAT3 in H69 cholangiocytes; experiment: Western blotting of phospho(Tyr705)-STAT3; format: cell-based; details: for enhancement of basal phospho(Tyr705)-STAT3 expression: doxorubicin 20 µM
Procedure: (§9) To perform the analysis, the cells were seeded in 6-well plates, then subjected to the treatment with β-caryophyllene (50 µM) and doxorubicin (20 µM), alone and in combination, for the required time exposure, then harvested by centrifugation and washed in PBS. A lysis buffer, containing SDS (2% w/w), Tris-hydrochloride (20 mM; pH 7.4), urea (2 M), glycerol (10% w/w), sodium orthovanadate (2 mM), DTT (10 mM) and a protease inhibitors cocktail (1:100 dilution) was used to achieve the cell protein separation. The separated proteins were resolved by SDS-PAGE 10% TGX FastCast™ Acrylamide gel (BioRad, Segrate, Italy) and transferred on PVDF membranes (BioRad, Segrate, Italy) by using a Trans-Blot® Turbo™ Transfer System (BioRad, Segrate, Italy). The membranes were blocked with a 0.2% w/v I-block (Thermo Fisher Scientific, Rodano, Italy) in Tris-buffered saline containing 0.05% Tween-20 (TBS-T), then stained with the desired primary antibodies. […] After rinsing three times in TBS-T to remove unbound primary antibody, the membranes were incubated for an additional hour with the appropriate horseradish peroxidase- or alkaline phosphatase-conjugated secondary antibody (Jackson ImmunoResearch, Pero, Italy). […] Each experiment was performed at least in three replicates.

[5] = test system: glutathione in H69 noncancerous cholangiocytes; experiment: HPLC determination of intracellular GSH and GSSG; format: cell-based; details: H69, 24 h
Procedure: as §2

[6] = test system: H69 noncancerous cholangiocytes; experiment: Annexin-V-Cy3/CFDA flow cytometry (apoptotic and viable cells); format: cell-based; details: for inhibition of viable cells (CF fluorescence): H69, 2 h and 24 h, maximum
Procedure: as §1
For flow cytometry analysis, the cells (1 × 10^6 cells) were grown in 6-well plates, treated with β-caryophyllene (50 µM) and doxorubicin (20 µM), alone and in combination for the required time exposure, then collected by trypsinization and resuspended in PBS in the presence of the fluorochrome Annexin-V-Cy3 (4 μg/mL in cell suspension). In order to detect viable cells, the nonfluorescent probe carboxyfluorescein diacetate (CFDA; 2 μg/mL in cell suspension), hydrolyzed in living cells by esterases to its fluorescent carboxyfluorescein metabolite (CF), was included too. For each sample, the mean fluorescence of Annexin-V-Cy3 (excitation/emission at 543/570 nm, respectively) and CF (excitation/emission at 492/514 nm, respectively) in 50,000 cells was measured using a BD Accuri^TM C6 flow cytometer, FL-2 and FL-1 channels respectively (BD Biosciences, Milan, Italy). Although standard flow cytometry apoptosis assays use Annexin V-FITC, we chosen the conjugate with Cy3 in order to avoid the overlapping in the excitation wavelength of annexin V-FITC and CF, which could interfere with the analysis. Cells undergoing apoptosis were also sorted by their typical forward- and side scatter (FSC-SSC) pattern, i.e., increased SSC and decreased FSC, respect to the viable cells. Multiparameter analysis and gating of forward and side scatter as well as fluorescence detection were performed using a BD Accuri^TM C6 Software version 1.0.264.21 (BD Biosciences, Milan, Italy).

[7] = test system: Mz-ChA-1 cholangiocarcinoma cells; experiment: Cell cycle analysis (PI flow cytometry); format: cell-based, human; details: Mz-ChA-1, 24 h
Procedure: Analysis of cell cycle progression was performed by applying a one parameter flow cytometric method, in which cell cycle distribution was evaluated on the basis of DNA content. Briefly, after treatments, the harvested cells (about 1 × 10^6 cells) were fixed in ice cold 70% ethanol and stored for at least 2 h at 4 °C. Thereafter, the ethanol-suspended cells were separated by centrifugation, rinsed in PBS, then resuspended in a propidium iodide (PI) staining solution, containing 0.1% v/v Triton X-100, 10 μg/mL PI and 100 μg/mL DNase-free RNase A in PBS and stored at 4 °C in the dark for at least 30 min. For each sample, the mean fluorescence of PI (maximum excitation of PI bound to DNA at 536 nm; emission at 617 nm) in 50,000 cells was measured using a BD Accuri^TM C6 flow cytometer FL2 channel (BD Biosciences, Milan, Italy) and deconvolution of the DNA content frequency histograms, to estimate the proportions of cells in the respective phases of the cycle, was made by Modfit 4.1 software (Verity Software House, Topsham, ME, USA).

[8] = test system: phospho(Tyr705)-STAT3 in Mz-ChA-1 cells; experiment: Western blotting of phospho(Tyr705)-STAT3; format: cell-based, human; details: for increase of phospho(Tyr705)-STAT3 compared the control: β-caryophyllene 50 µM, doxorubicin 20 µM
Procedure: as §9

[9] = test system: Mz-ChA-1 cholangiocarcinoma cells
Procedure: as §3, §4, §5, §6, §7, §8

[10] = test system: H69 noncancerous cholangiocytes; experiment: MTT cytotoxicity and combination assay; format: cell-based; details: for IC50: combination with 50 µM β-caryophyllene; for cytotoxicity: H69, 100 μM
Procedure: as §3, §4, §6

[11] = 24 h, read-out: IC50 (CL), Mz-ChA-1, 24 h exposure
[12] = 72 h, read-out: IC50 (CL), Mz-ChA-1, 72 h exposure
[13] = read-out: IC50 (CL), Mz-ChA-1, double repeated 2 h exposure + 72 h recovery
[14] = read-out: IC50 (CL), Mz-ChA-1, single 2 h exposure + 72 h recovery
[15] = β-caryophyllene 50 µM, doxorubicin 20 µM
[16] = H69, double repeated 2 h exposure + 72 h recovery
[17] = H69, single 2 h exposure + 72 h recovery

With `COc1cccc2c1C(=O)c1c(O)c3c(c(O)c1C2=O)C[C@@](O)(C(=O)CO)C[C@@H]3O[C@H]1C[C@H](N)[C@H](O)[C@H](C)O1` [Doxorubicin, doxorubicin hydrochloride] the “Annexin V Mz-ChA-1 (semiquantitative apoptosis score)” value [1] was “+ (11%–30% = +)”, the “lowering of GSH/GSSG ratio” value ([2]; Mz-ChA-1, 2 h) was 1.3 fold and the “change in GSH” value ([2]; Mz-ChA-1, 2 h, doxorubicin 20 µM) was “not significantly decreased”. The “change in GSSG” value ([2]; Mz-ChA-1, 24 h) was “without changes in the GSSG amount”, the “lowering of GSH/GSSG ratio” value ([2]; Mz-ChA-1, 24 h) was 4 fold and the “reduction of GSH” value ([2]; Mz-ChA-1, 24 h, doxorubicin 20 µM) was “at least 3 fold”. For the same molecule, the IC50 [3, 11] was 27.8 µM, the IC50 [3, 12] was 3.8 µM and the IC50 [3, 13] was 11.6 µM. For the same molecule, the IC50 [3, 14] was 19.8 µM, the “enhancement of basal phospho(Tyr705)-STAT3 expression” value ([4]; H69, 2 h) was roughly 6 fold and the “enhancement of basal phospho(Tyr705)-STAT3 expression” value ([4]; H69, 24 h) was roughly 10 fold. For the same molecule, the “change in the amount of GSSG” value [5] was “slightly but not significantly reduced”, the “depletion of GSH” value [5] was roughly 2 fold and the “lowering of basal GSH/GSSG ratio” value [5] was roughly 1.6 fold. The “inhibition of viable cells (CF fluorescence)” value [6] was no more than 1.4 fold, the “increase of apoptotic rate” value ([6]; H69, 24 h, doxorubicin 20 µM) was roughly 1.5 fold and the “increase of cell accumulation in S-phase compared the control” value ([7]; doxorubicin 20 µM) was roughly 1.6 fold. The “reduction of G0/G1 phase” value ([7]; doxorubicin 20 µM) was “at least 4 fold”, the “increase in G2/M phase vs. control” value [7, 15] was “about 1.4 fold” and the “increase of phospho(Tyr705)-STAT3 compared the control” value (“increase of phospho(Tyr705)-STAT3” for short) ([8]; Mz-ChA-1, 2 h) was roughly 100 fold. For the same molecule, the “increase of phospho(Tyr705)-STAT3” value ([8]; Mz-ChA-1, 24 h) was roughly 20 fold, the “higher phospho(Tyr705)-STAT3 expression in Mz-ChA-1 with respect H69 cholangiocytes” value ([8]; doxorubicin-promoted, Mz-ChA-1 vs H69) was roughly 10 fold and the “cytotoxicity increase produced by the double repeated exposure” value [9] was 10%. For the same molecule, the “IC50 lowering, double repeated 2 h metronomic vs 24 h protocol” value ([9]; Mz-ChA-1) was roughly 2.4 fold, the “IC50 lowering, single 2 h metronomic vs 24 h protocol” value ([9]; Mz-ChA-1) was “about 1.4 fold” and the “IC50 reduction, double short exposure vs single 2 h treatment” value ([9]; Mz-ChA-1) was 1.7 fold. For the same molecule, the “anticancer power under metronomic conditions lower than after 72 h” value ([9]; Mz-ChA-1) was 3- to 5 fold, the “potency increase, 72 h with respect to 24 h (IC50 comparison)” value ([9]; Mz-ChA-1) was “at least 7 fold” and the “inhibition of cell viability” value ([9]; Mz-ChA-1, 1 µM, 72 h) was “about 20%”. For the same molecule, the “inhibition of cell viability” value ([9]; Mz-ChA-1, 10 μM, 2 h exposure protocol) was no less than 35%, the “inhibition of cell viability” value ([9]; Mz-ChA-1, 10 µM, 24 h) was “about 20%” and the “inhibition of cell viability” value ([9]; Mz-ChA-1, 10 µM, 72 h) was “about 80%”. For the same molecule, the “maximum inhibition of cell viability” value ([9]; Mz-ChA-1, 100 μM, both metronomic schedules) was 80%, the “maximum inhibition of cell viability” value ([9]; Mz-ChA-1, 200 µM, 24 h) was “about 80%” and the “cell viability reduction vs. control” value ([9]; Mz-ChA-1, concentrations lower than 10 μM, 2 h exposure protocol) was less than 20%. The IC50 ([10]; 24 h, H69, 24 h exposure) was 13.6 µM, the IC50 ([10]; 72 h, H69, 72 h exposure) was 4 µM and the “IC50 reduction, double short exposure compared the single one” value ([10]; H69) was 1.5 fold. For the same molecule, the “cytotoxicity lowering, double repeated metronomic vs 24 h exposure (IC50)” value ([10]; H69) was roughly 3 fold, the “cytotoxicity lowering, single metronomic vs 24 h exposure (IC50)” value ([10]; H69) was roughly 7 fold and the “fold more toxic after 72 h with respect to 24 h (IC50 comparison)” value ([10]; H69) was “about 3 fold”. The “inhibition of cell viability” value ([10]; H69, 10 µM, 24 h) was “about 40%”, the “fold more toxic than the 24 h protocol” value ([10]; H69, 10 µM, 72 h) was 2 fold and the maximal cytotoxicity ([10]; H69, 10 µM, 72 h) was “about 80%”. For the same molecule, the cytotoxicity ([10]; double repeated 2 h exposure) was roughly 70%, the cytotoxicity ([10]; single 2 h exposure) was “about 60%” and the “maximum inhibition of cell viability” value ([10]; H69, 200 µM, 24 h) was “about 80%”. The IC50 [10, 16] was 54.4 µM, the “fold safer than the long-term exposures of 72 h” value ([10]; H69, metronomic schedules) was “about 100 fold” and the “nontoxic up to (concentration)” value ([10]; H69, metronomic schedules) was “up to 20 μM”. For the same molecule, the IC50 [10, 17] was 81.8 µM.
`C=C1CC/C=C(\C)CC[C@@H]2[C@@H]1CC2(C)C` [β-Caryophyllene, β-caryophyllene] was tested, and the “Annexin V Mz-ChA-1 (semiquantitative apoptosis score)” value [1] was “+/- (6%–10% = +/−)”, the “change in GSSG” value ([2]; Mz-ChA-1, 24 h) was “without changes in GSSG” and the “increase of GSH levels vs. control” value ([2]; Mz-ChA-1, 24 h, β-caryophyllene 50 µM) was “about 2.5 fold”. The “increase of GSH/GSSG ratio” value ([2]; Mz-ChA-1, β-caryophyllene alone) was “about 2 fold”, the IC50 [3, 11] was 124 µM and the IC50 [3, 12] was 90 µM. The IC50 [3, 13] was 140 µM, the IC50 [3, 14] was 172 µM and the “effect on phospho(Tyr705)-STAT3 expression” value ([4]; H69, β-caryophyllene 50 µM alone) was “did not affected the protein expression”. For the same molecule, the “change in the amount of GSSG” value [5] was “slightly increased”, the “basal GSH/GSSG ratio” value ([5]; β-caryophyllene 50 µM) was “retained” and the “enhancement of GSH” value ([5]; β-caryophyllene 50 µM) was roughly 1.5 fold. The “inhibition of viable cells (CF fluorescence)” value [6] was “about 1.2 fold”, the “lowering of basal apoptosis (annexin-V-Cy3)” value ([6]; H69, both time exposures, β-caryophyllene 50 µM) was 1.2 fold and the “increase in G0/G1 phase vs. control” value ([7]; β-caryophyllene 50 µM) was “about 1.2 fold”. For the same molecule, the “increase in G2/M phase vs. control” value [7, 15] was “about 1.5 fold”, the “increase of phospho(Tyr705)-STAT3” value ([8]; Mz-ChA-1, 2 h) was no less than 3 fold and the “increase of phospho(Tyr705)-STAT3” value ([8]; Mz-ChA-1, 24 h) was no less than 3 fold. The “fold more toxic after 72 h with respect to the other schedules (IC50 comparison)” value ([9]; Mz-ChA-1) was 1.4- to 2 fold, the “reduction of cell viability” value ([9]; Mz-ChA-1, 50 μM) was “lower than 20%” and the “inhibition of cell viability vs. control” value ([9]; Mz-ChA-1, concentrations higher than 50 μM, 24 h and 72 h) was “about 20%”. The “nontoxic up to (concentration)” value ([9]; Mz-ChA-1, metronomic schedule) was “up to 125 μM”, the IC50 ([10]; 24 h, H69, 24 h exposure) was 148 µM and the IC50 ([10]; 72 h, H69, 72 h exposure) was 146 µM. The “maximum cytotoxicity increase, long-term compared metronomic treatments (IC50)” value ([10]; H69) was “about 1.2 fold”, the “reduction of cell viability” value ([10]; H69, 50 μM) was “lower than 20%” and the “inhibition of cell viability vs. control” value ([10]; H69, 125 μM, 24 h and 72 h) was “about 40%”. The “effect on cell proliferation” value ([10]; H69, 125 μM, metronomic schedules) was “without affecting cell proliferation”, the IC50 [10, 16] was 161 µM and the IC50 [10, 17] was 177 µM.
